Literature values in patent publication US9763924B2, “Aminoester derivatives” (CHIESI FARMACEUTICI S.P.A., priority 2014, dated 2017).

System: COPD patients
[1] = patients with severe disease who have frequent exacerbations and mucus hypersecretion

O=C(Nc1c(Cl)cncc1Cl)c1ccc(OC(F)F)c(OCC2CC2)c1 [roflumilast]
reduction of the numbers of neutrophils in sputum (COPD patients, oral, given over 4 weeks): 36%
improvement of FEV 1 [1]: approximately 50 mL
reduction of exacerbation [1]: about 15%
